Assay results: publication PMC7037610, “Novel Cationic Prodrug of Ubiquinol-10 Enhances Intestinal Absorption via Efficient Formation of Nanosized Mixed-Micelles with Bile Acid Anions” (Molecules, 2020)
Values joined by “and” are separate entries in the source; they are usually repeats but may differ in a detail not shown here. Equal entries are not always repeated. Structures can show the parent of a compound that is named as a salt. Marks after values point to notes of the source that are not given here.

How the values were obtained:
[1] = parameters: method as in Japanese Pharmacopoeia monograph; settings: ref Japanese Pharmacopoeia monograph, cited from earlier work
[2] = Enzymatic hydrolysis of UqH-derivatives in rat liver microsomes; type: in vitro ADME; settings: for Km / Vmax: pH 7.4, 37 °C
Protocol: (§1) The hydrolysis of esters was analyzed at 37 °C in phosphate buffered saline (PBS) containing commercially available rat or human liver microsomes (In Vitro Technologies, Inc., Baltimore, MD, USA). The microsomes (20 mg/mL) were adjusted to a protein concentration of 2 mg/mL and were preincubated at 37 °C for 5 min before adding the esters.
Stock solutions of esters were prepared in ethanol. The enzymatic reactions were initiated by adding 10 µL ester stock solution (final concentration 0.1–0.4 mM) and 50 μL PBS to 940 µL of preheated reaction medium containing rat or human liver microsomes in amber test tubes. These reactions were incubated at 37 °C and, at various times, 100 μL aliquots were removed and mixed with 100 µL 10% trichloroacetic acid. Samples were then vortex mixed for 2 min and 800 µL ethyl acetate was added, with vortex mixing for 5 min. The samples were centrifuged at 1250× g for 10 min. The 20 µL organic layer was analyzed by the HPLC system described in Section 3.9.1. The initial hydrolytic rate (mM UqH-10 formed per min) was calculated from the initial slope of a plot of UqH-10 concentration versus time.
(§2) The Shimadzu HPLC system (Shimadzu, Kyoto, Japan) consisted of a pump (LC-10AD), an autoinjector (SIL-10ADvp), a UV detector (SPD-10Avp), and a column oven (CTO-10Avp). The eluent was monitored spectrophotometrically at 280 nm. Compounds were analyzed on a YMC-Pack C8 reversed-phase column (φ 4.6 × 250 mm, YMC Co., Ltd., Kyoto, Japan) protected by a µBondapak C18 Guard-Pak (Waters Co., Milford, MA, USA) with a degassed mobile phase of methanol and 2-propanol (850/150, v/v) at 0.8 mL/min. UqH-10 and Uq-10 were quantified using linear calibration curves of peak areas versus concentrations. UqH-10 was partly oxidized during the preparation procedure. Therefore, the sum of UqH-10 and Uq-10 represented total UqH-10. Retention times were: UqH-10, 11.6 min; UqH-ester derivatives, 13.2 min and Uq-10, 15.4 min.

Water solubility = type: physicochemical; settings: in water
Protocol: The aqueous solubility of each ester was determined by adding 20 μmol of each compound to 1 mL distilled water in amber test tubes and incubating the tubes at 25 ± 1 °C in a constant-temperature water bath. The test tubes were shaken for 24 h and the suspensions were centrifuged at 1250× g for 10 min. The supernatants were diluted 10-fold with distilled water and assayed by the HPLC method described in Section 3.9.1.
as §2

[3] = Enzymatic hydrolysis of UqH-derivatives in human liver microsomes; type: in vitro ADME; settings: pH 7.4, 37 °C, Michaelis–Menten fit
Protocol: as §1
Stock solutions of esters were prepared in ethanol. The enzymatic reactions were initiated by adding 10 µL ester stock solution (final concentration 0.1–0.4 mM) and 50 μL PBS to 940 µL of preheated reaction medium containing rat or human liver microsomes in amber test tubes. […] The 20 µL organic layer was analyzed by the HPLC system described in Section 3.9.1. The initial hydrolytic rate (mM UqH-10 formed per min) was calculated from the initial slope of a plot of UqH-10 concentration versus time.
The Shimadzu HPLC system (Shimadzu, Kyoto, Japan) consisted of a pump (LC-10AD), an autoinjector (SIL-10ADvp), a UV detector (SPD-10Avp), and a column oven (CTO-10Avp). The eluent was monitored spectrophotometrically at 280 nm. Compounds were analyzed on a YMC-Pack C8 reversed-phase column (φ 4.6 × 250 mm, YMC Co., Ltd., Kyoto, Japan) protected by a µBondapak C18 Guard-Pak (Waters Co., Milford, MA, USA) with a degassed mobile phase of methanol and 2-propanol (850/150, v/v) at 0.8 mL/min. […]

[4] = Mixed-micellization with taurocholic acid (appearance of mixtures); type: physicochemical
Protocol: (§3) A solution of 20 mM UqH-DMG was prepared in distilled water and incubated at 36.5 °C until the solution was translucent. The solution was combined with 10 mM TCA aqueous solution in the final molar ratios of 1:0.5–10 UqH-DMG:TCA.

[5] = Micellization of UqH-DMG in water (visual inspection, solubilizing point vs temperature); type: physicochemical; settings: for Appearance of solution: 45 mM in water
Protocol: UqH-DMG was diluted to intended concentrations with milliQ water in glass tubes. The test tubes were incubated in a water bath equipped with a thermometer. The solution appearance was visually inspected and the solubilizing points were plotted on a concentration versus incubation temperature curve.

[6] = Particle size by dynamic light scattering (Zetasizer Nano ZS); type: physicochemical; settings: mean ± SD
Protocol: as §3
The Z-average of diameters of the particles of aqueous solution of UqH-DMG prepared in a polystyrene cuvette in Section 3.7.1. above were determined by a Zetasizer Nano ZS (MALVERN, Worcestershire, UK). The measurements were performed three independent times for each sample.

[7] = system: esterases in rat liver microsomes; test: Effect of eserine on UqH-4-DMG hydrolysis in rat liver microsomes; type: biochemical; settings: eserine 0–2.0 mM
Protocol: (§4) Effects of eserine on UqH-4-DMG hydrolysis in liver microsomes was also examined, using similar methods, with 50 µL eserine aqueous solution added, instead of PBS, to the mixtures with liver microsomes. Eserine was tested at 0–2.0 mM.

[8] = system: esterases in human liver microsomes; test: Effect of eserine on UqH-4-DMG hydrolysis in human liver microsomes; type: biochemical; settings: eserine 0–2.0 mM
Protocol: as §4

[9] = calculated using generated UqH-10 levels after sequential hydrolysis

COc1c(OC(=O)CN(C)C)c(C)c(C/C=C(\C)CC/C=C(\C)CC/C=C(\C)CC/C=C(\C)CC/C=C(\C)CC/C=C(\C)CC/C=C(\C)CC/C=C(\C)CC/C=C(\C)CCC=C(C)C)c(OC(=O)CN(C)C)c1OC (as salt: hydrochloride) [UqH-DMG, 2,3-dimethoxy-5-methyl-6-decaprenyl-benzene-1,4-bis-N,N–dimethyl glycinate]
melting point: 179 to 181 °C

COC1=C(OC)C(=O)C(C/C=C(\C)CC/C=C(\C)CC/C=C(\C)CC/C=C(\C)CC/C=C(\C)CC/C=C(\C)CC/C=C(\C)CC/C=C(\C)CC/C=C(\C)CCC=C(C)C)=C(C)C1=O [Uq-10, Ubiquinone-10]
Water solubility ([1]; even when diluted to this concentration): < 116 µM
Water solubility descriptor [1]: practically insoluble, or insoluble

COc1c(O)c(C)c(C/C=C(\C)CC/C=C(\C)CC/C=C(\C)CC/C=C(\C)CC/C=C(\C)CC/C=C(\C)CC/C=C(\C)CC/C=C(\C)CC/C=C(\C)CCC=C(C)C)c(OC(=O)CN(C)C)c1OC [UqH-1-DMG]
Km ([2]; Michaelis–Menten fit): 4630 µM
Vmax ([2]; Michaelis–Menten fit): 8.21e-07 M/min
Water solubility compared with UqH bis-ester (UqH-DMG) (Water solubility): lower

COc1c(O)c(C/C=C(\C)CC/C=C(\C)CC/C=C(\C)CC/C=C(\C)CC/C=C(\C)CC/C=C(\C)CC/C=C(\C)CC/C=C(\C)CC/C=C(\C)CCC=C(C)C)c(C)c(OC(=O)CN(C)C)c1OC [UqH-4-DMG]
Vmax/Km relative to UqH-1-DMG [2]: 8.9 fold
Km ([2]; Michaelis–Menten fit): 75.1 µM
Vmax ([2]; Michaelis–Menten fit): 1.19e-07 M/min
Km [3]: 72.2 µM
Vmax [3]: 1.23e-07 M/min
Water solubility compared with UqH bis-ester (UqH-DMG) (Water solubility): lower
Solubilization with taurocholic acid ([4]; 10-times molar-equivalents taurocholic acid): solubilized

COc1c(OC(=O)CN(C)C)c(C)c(C/C=C(\C)CC/C=C(\C)CC/C=C(\C)CC/C=C(\C)CC/C=C(\C)CC/C=C(\C)CC/C=C(\C)CC/C=C(\C)CC/C=C(\C)CCC=C(C)C)c(OC(=O)CN(C)C)c1OC [UqH-DMG, 2,3-dimethoxy-5-methyl-6-decaprenyl-benzene-1,4-bis-N,N–dimethyl glycinate]
Km [2, 9]: 3890 µM
Vmax [2, 9]: 0.603 ^a ×10^−6 M·min^−1
Appearance of solution ([5]; 27.0 °C): opaque
Appearance of solution ([5]; 36.5 °C): transparent
Krafft's point ([5]; in water): around 36.5 °C
solubility at 24 h (Water solubility; distilled water, read-out: Water solubility (transparent solution in water at concentrations up to)): ≤ 5000 µM
Appearance of mixture with taurocholic acid ([4]; UqH-DMG:TCA molar ratio 1:0.5): slightly cloudy
Appearance of mixture with taurocholic acid ([4]; UqH-DMG:TCA molar ratios 1:1 to 1:10): transparent
Z-average particle diameter ([6]; 20 mM in water, without TCA, prepared at 36.5 °C): 20.38 ± 0.14 nm and 20 nm
Z-average particle diameter ([6]; UqH-DMG:TCA mixture at 1:1 molar ratio): 5.183 ± 0.033 nm and 5 nm

CNC(=O)Oc1ccc2c(c1)[C@]1(C)CCN(C)[C@@H]1N2C [eserine, physostigmine sulfate]
Effect on UqH-4-DMG hydrolysis [7]: inhibited
Effect on UqH-4-DMG hydrolysis [8]: inhibited
